Where “and” joins values, the source holds several entries; their conditions need not be identical. Equal values may be shown once. Read-outs that look alike come from different tables or passages of the source.
Biological target: T1, androgen receptor (AdEasy+rAR, COS-7 cells) (Rattus norvegicus, UniProt P15207)
T1 construct: expressed in transfected cells; host or cells: COS-7 cells transduced with adenovirus AdEasy+rAR
T1 sequence (P15207 1-902): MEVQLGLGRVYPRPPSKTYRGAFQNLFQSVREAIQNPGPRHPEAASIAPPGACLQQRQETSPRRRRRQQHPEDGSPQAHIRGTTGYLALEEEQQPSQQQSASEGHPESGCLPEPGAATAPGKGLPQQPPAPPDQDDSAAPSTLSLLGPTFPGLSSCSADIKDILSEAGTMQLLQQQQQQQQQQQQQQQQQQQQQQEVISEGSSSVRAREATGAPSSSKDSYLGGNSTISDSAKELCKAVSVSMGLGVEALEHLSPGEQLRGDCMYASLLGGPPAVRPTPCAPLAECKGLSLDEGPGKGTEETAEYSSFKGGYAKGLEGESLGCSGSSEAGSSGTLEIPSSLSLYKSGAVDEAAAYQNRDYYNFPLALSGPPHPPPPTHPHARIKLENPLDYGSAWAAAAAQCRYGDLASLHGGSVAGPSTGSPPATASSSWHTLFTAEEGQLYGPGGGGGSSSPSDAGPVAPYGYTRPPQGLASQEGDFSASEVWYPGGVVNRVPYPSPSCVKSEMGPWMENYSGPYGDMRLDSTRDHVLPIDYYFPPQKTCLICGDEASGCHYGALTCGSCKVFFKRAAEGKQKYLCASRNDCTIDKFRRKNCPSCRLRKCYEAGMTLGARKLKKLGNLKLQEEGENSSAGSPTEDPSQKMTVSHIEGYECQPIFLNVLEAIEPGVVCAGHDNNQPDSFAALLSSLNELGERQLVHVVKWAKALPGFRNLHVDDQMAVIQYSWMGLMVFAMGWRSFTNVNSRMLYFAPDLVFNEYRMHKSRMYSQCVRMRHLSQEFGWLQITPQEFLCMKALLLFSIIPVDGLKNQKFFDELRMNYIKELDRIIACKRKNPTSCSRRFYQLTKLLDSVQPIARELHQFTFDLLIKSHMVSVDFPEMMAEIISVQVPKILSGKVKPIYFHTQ
Assay: COS-7 Whole-Cell Androgen Receptor Binding Assay, Adenovirus Transduction
Conditions: for % Inhibition, COS Binding / inhibition at 3 µM: concentration of 3000 nM
Outline: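 COS-7 cells in phenol red-free DMEM/F12 with 10% charcoal-treated FBS were transduced with AdEasy+rAR adenovirus (moi 1:50 per well), exposed to test compound in duplicate and incubated for 48 h at 37° C. Cells were then lysed in 0.5% Triton X-100 and bound radioactivity counted by scintillation.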

[1] = read-out: IC50 (nM), COS Binding

| Structure (SMILES) | % Inhibition, COS Binding (3 µM) | IC50 [1] | inhibition at 3 µM [%] | % Inhibition, COS Binding [%] | IC50 (IC50 (nM), COS Binding) [nM] |
| --- | --- | --- | --- | --- | --- |
| CC(O)(CS(C)(=O)=O)c1cc2cc([N+](=O)[O-])c(C(F)(F)F)cc2[nH]1 (stereo not shown) [Compound 140] | 51.5% | > 1500 nM | – | – | – |
| CSCCC(C)(O)c1cc2cc([N+](=O)[O-])c(C(F)(F)F)cc2[nH]1 (stereo not shown) [Compound 47] | – | > 1000 nM | 78 | – | – |
| CCS(=O)(=O)CC(C)(O)c1cc2cc([N+](=O)[O-])c(C(F)(F)F)cc2[nH]1 (stereo not shown) [Compound 151] | 55% | > 970 nM and 2190 nM | – | – | – |
| CSCC(C)(O)c1cc2cc(Cl)c(C(F)(F)F)cc2[nH]1 (stereo not shown) [Compound 135] | – | 320 nM | 98 | – | – |
| CC(O)(CS(=O)(=O)c1ccc(N)cc1)c1cc2cc(Cl)c(C(F)(F)F)cc2[nH]1 (stereo not shown) [Compound 118] | – | > 1500 nM | 62 | – | – |
| CCSCC(C)(O)c1cc2cc([N+](=O)[O-])c(C(F)(F)F)cc2[nH]1 (racemic) [Compound 142] | – | 220 nM | 90 | – | – |
| CC(O)(CS(C)(=O)=O)c1cc2cc(Cl)c(C(F)(F)F)cc2[nH]1 (stereo not shown) [Compound 138] | – | 317 nM | 78 | – | – |
| CCSCC(C)(O)c1cc2cc([N+](=O)[O-])c(C(F)(F)F)cc2[nH]1 (single isomer, unassigned) [Compound 149] | – | 780 nM and > 790 nM | 63 | – | – |
| CCS(=O)(=O)CC(C)(O)c1cc2cc([N+](=O)[O-])c(C(F)(F)F)cc2[nH]1 (stereo not shown) [Compound 143] | – | > 1500 nM | 68 | – | – |
| CC(O)(CSc1ccc([N+](=O)[O-])cc1)c1cc2cc(Cl)c(C(F)(F)F)cc2[nH]1 (stereo not shown) [Compound 122] | – | > 1600 nM | 66 | – | – |
| CC(C)SCC(C)(O)c1cc2cc([N+](=O)[O-])c(C(F)(F)F)cc2[nH]1 (stereo not shown) [Compound 164] | – | > 1000 nM | 68 | – | – |
| CCSCC(O)(CC)c1cc2cc([N+](=O)[O-])c(C(F)(F)F)cc2[nH]1 (stereo not shown) [Compound 169] | – | 48 nM | 90 | – | – |
| CCSCC(C)(O)c1cc2cc([N+](=O)[O-])c(C(F)(F)F)cc2n1S(C)(=O)=O (stereo not shown) [Compound 141] | – | > 3000 nM | 42 | – | – |
| CCC(O)(CS(=O)(=O)CC)c1cc2cc([N+](=O)[O-])c(C(F)(F)F)cc2[nH]1 (stereo not shown) [Compound 176] | – | – | 75 | – | – |
| COc1ccc(S(=O)(=O)CC(C)(O)c2cc3cc(Cl)c(C(F)(F)F)cc3[nH]2)cc1 (racemic) [Compound 129] | – | – | – | 10 | – |
| CSCC(C)(O)c1cc2cc(C#N)c(C(F)(F)F)cc2[nH]1 (stereo not shown) [Compound 136] | – | 527 nM | 4.8 | – | – |
| CSCC(C)(O)c1cc2cc([N+](=O)[O-])c(C(F)(F)F)cc2[nH]1 (single isomer, unassigned) [Compound 144] | – | 375 nM | – | – | – |
| CC(O)(CSCc1ccccc1)c1cc2cc([N+](=O)[O-])c(C(F)(F)F)cc2[nH]1 (stereo not shown) [Compound 160] | – | 250 nM | 84 | – | – |
| CCCSCC(C)(O)c1cc2cc([N+](=O)[O-])c(C(F)(F)F)cc2[nH]1 (stereo not shown) [Compound 168] | – | > 3000 nM | 60 | – | – |

| Structure (SMILES) | % Inhibition, COS Binding (3 µM) | IC50 [1] | inhibition at 3 µM [%] | % Inhibition, COS Binding [%] | IC50 (IC50 (nM), COS Binding) [nM] |
| --- | --- | --- | --- | --- | --- |
| CC(O)(CSc1ccc(O)cc1)c1cc2cc(Cl)c(C(F)(F)F)cc2[nH]1 (stereo not shown) [Compound 120] | – | 205 nM | 86 | – | – |
| CSCC(C)(O)c1cc2cc([N+](=O)[O-])c(C(F)(F)F)cc2[nH]1 (single isomer, unassigned) [Compound 145] | – | 36.7 nM | 84.7 | – | – |
| CC(O)(CSCC(F)(F)F)c1cc2cc([N+](=O)[O-])c(C(F)(F)F)cc2[nH]1 (stereo not shown) [Compound 171] | 94% | 145 nM | 92 | – | – |
| CC(O)(CSC1CCCC1)c1cc2cc([N+](=O)[O-])c(C(F)(F)F)cc2[nH]1 (stereo not shown) [Compound 173] | – | > 3000 nM | 17 | – | – |
| COc1ccc(SCC(C)(O)c2cc3cc(Cl)c(C(F)(F)F)cc3[nH]2)cc1 (stereo not shown) [Compound 131] | – | > 1600 nM | 84 | – | – |
| CC(O)(CSc1ccc(N)cc1)c1cc2cc(Cl)c(C(F)(F)F)cc2[nH]1 (stereo not shown) [Compound 104] | – | – | 94 | – | – |
| CC(O)(CS(=O)(=O)c1ccc(O)cc1)c1cc2cc(Cl)c(C(F)(F)F)cc2[nH]1 (stereo not shown) [Compound 121] | – | > 1800 nM | 72 | – | – |
| CCS(=O)(=O)C[C@](C)(O)c1cc2cc([N+](=O)[O-])c(C(F)(F)F)cc2[nH]1 [Compound 156, 1-Ethanesulfonyl-2-(5-nitro-6-trifluoromethyl-1H-indol-2-yl)-propan-2-ol] | 52% | – | 42 | – | > 1000 |
| CC(O)(CS(C)(=O)=O)c1cc2cc([N+](=O)[O-])c(C(F)(F)F)cc2[nH]1 (stereo not shown) [Compound 147] | 6.1% | > 3000 nM | – | – | – |
| CCSCC(C)(O)c1cc2cc([N+](=O)[O-])c(C(F)(F)F)cc2[nH]1 (single isomer, unassigned) [Compound 150] | 81% and 74% | 165 nM and 627 nM | – | – | – |
| CCSCC(C)(O)c1cc2cc([N+](=O)[O-])c(C(F)(F)F)cc2n1C (racemic) [Compound 165] | – | > 3000 nM | 69 | – | – |
| CC(O)(CS(C)(=O)=O)c1cc2cc([N+](=O)[O-])c(C(F)(F)F)cc2[nH]1 (stereo not shown) [Compound 148] | 32% | > 2400 nM | – | – | – |
| CC(O)(C[S+]([O-])Cc1ccccc1)c1cc2cc([N+](=O)[O-])c(C(F)(F)F)cc2[nH]1 (mixture of isomers) [Compound 161] | – | – | – | 20 | – |
| COc1ccc(SCC(C)(O)c2cc3cc(Cl)c(C(F)(F)F)cc3n2S(C)(=O)=O)cc1 (racemic) [Compound 130] | – | – | – | −8 | – |
| CCSCC(O)c1cc2cc([N+](=O)[O-])c(C(F)(F)F)cc2[nH]1 (stereo not shown) [Compound 158] | 56% | 160 nM and 550 nM | 62 | – | – |
| CC[S+]([O-])C[C@](C)(O)c1cc2cc([N+](=O)[O-])c(C(F)(F)F)cc2[nH]1 (stereo in doubt) [Compound 155, 1-Ethanesulfinyl-2-(5-nitro-6-trifluoromethyl-1H-indol-2-yl)-propan-2-ol] | – | – | 35 | – | – |
| CC(O)(CCS(C)(=O)=O)c1cc2cc([N+](=O)[O-])c(C(F)(F)F)cc2[nH]1 (stereo not shown) [Compound 49] | – | > 3000 nM | 30 | – | – |
| CC(C)CSCC(C)(O)c1cc2cc([N+](=O)[O-])c(C(F)(F)F)cc2[nH]1 (stereo not shown) [Compound 170] | – | > 3000 nM | 67 | – | – |

Source: patent US7282507B2, “Indole derivatives as selective androgen receptor modulators (SARMS)” (Janssen Pharmaceutica N.V., priority 2004, dated 2007)
